The record followed here is ChEMBL document CHEMBL4406804, “Discovery of a Potent Steroidal Glucocorticoid Receptor Antagonist with Enhanced Selectivity against the Progesterone and Androgen Receptors (OP-3633)” (J Med Chem, 2019).

For one data set, the target named is T1, CYP2C8 (Homo sapiens, UniProt P10632).
T1 sequence (P10632 whole entry): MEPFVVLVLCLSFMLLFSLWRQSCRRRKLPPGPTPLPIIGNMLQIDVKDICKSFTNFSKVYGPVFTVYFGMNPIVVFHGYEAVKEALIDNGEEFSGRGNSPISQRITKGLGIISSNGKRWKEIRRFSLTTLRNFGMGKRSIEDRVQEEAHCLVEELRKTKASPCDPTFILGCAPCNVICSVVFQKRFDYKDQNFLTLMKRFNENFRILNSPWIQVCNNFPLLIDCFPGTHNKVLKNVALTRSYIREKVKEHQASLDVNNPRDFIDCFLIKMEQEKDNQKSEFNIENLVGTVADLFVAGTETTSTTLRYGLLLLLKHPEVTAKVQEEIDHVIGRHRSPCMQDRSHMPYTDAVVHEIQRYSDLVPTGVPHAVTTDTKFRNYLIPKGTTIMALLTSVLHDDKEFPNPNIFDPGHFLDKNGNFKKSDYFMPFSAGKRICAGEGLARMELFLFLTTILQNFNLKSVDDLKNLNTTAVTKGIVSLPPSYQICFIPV
Briefly: Inhibition of CYP2C8 (unknown origin) at 10 uM using paclitaxel as substrate relative to control. In kind it is ADME. Particulars: probe paclitaxel.

A further data set concerns the target Cytochrome P450 3A4 (Homo sapiens, UniProt P08684). Briefly: Inhibition of CYP3A4 (unknown origin) using midazolam as substrate. Type of data set: ADME.
Another data set concerns the target T2, Glucocorticoid receptor (Homo sapiens, UniProt P04150).
T2 sequence (P04150 whole entry): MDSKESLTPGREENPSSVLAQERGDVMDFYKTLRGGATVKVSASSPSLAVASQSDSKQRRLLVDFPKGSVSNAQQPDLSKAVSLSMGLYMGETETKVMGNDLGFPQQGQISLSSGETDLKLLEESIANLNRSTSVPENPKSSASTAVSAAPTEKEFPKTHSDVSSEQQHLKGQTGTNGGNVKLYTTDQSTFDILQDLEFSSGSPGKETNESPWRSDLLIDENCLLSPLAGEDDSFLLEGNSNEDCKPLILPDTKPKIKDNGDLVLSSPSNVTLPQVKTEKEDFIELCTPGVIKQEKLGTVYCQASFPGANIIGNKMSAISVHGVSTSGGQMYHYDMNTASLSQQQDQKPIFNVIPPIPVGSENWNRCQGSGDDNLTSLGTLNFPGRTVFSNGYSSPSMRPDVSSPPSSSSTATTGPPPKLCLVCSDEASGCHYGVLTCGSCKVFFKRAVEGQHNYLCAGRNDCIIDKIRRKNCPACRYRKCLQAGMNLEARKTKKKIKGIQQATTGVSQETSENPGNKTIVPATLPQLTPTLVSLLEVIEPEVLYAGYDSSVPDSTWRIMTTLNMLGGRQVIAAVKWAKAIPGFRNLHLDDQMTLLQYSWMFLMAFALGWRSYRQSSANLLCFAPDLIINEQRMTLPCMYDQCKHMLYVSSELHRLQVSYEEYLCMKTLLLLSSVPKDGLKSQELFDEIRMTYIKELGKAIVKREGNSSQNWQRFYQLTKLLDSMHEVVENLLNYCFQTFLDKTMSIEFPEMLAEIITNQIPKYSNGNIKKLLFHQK
Briefly: Antagonist activity at human glucocorticoid receptor expressed in CHO-K1 cells assessed as inhibition of glucocorticoid receptor-dexamethasone coactivator protein-protein interaction incubated for 24 hrs by bioluminescence assay. Type of data set: cell-based.

The nature of data set [1]: Volume of distribution at steady state in dog at 0.5 mg/kg, iv. In kind it is ADME, organism-based, Canis lupus familiaris. Particulars: in vivo, read-out: Vdss.
Data set [2] in a line: Cmax in dog at 5 mg/kg, po. In kind it is ADME, organism-based, Canis lupus familiaris. More on the design: dose 5 mg/kg, route oral. Particulars: in vivo.
A short description of data set [3]: Volume of distribution at steady state in mini-pig at 0.5 mg/kg, iv. Type of data set: ADME, organism-based, Sus scrofa domesticus. Particulars: in vivo, read-out: Vdss.

Chain of Cytochrome P450 3A4 (P08684 whole entry): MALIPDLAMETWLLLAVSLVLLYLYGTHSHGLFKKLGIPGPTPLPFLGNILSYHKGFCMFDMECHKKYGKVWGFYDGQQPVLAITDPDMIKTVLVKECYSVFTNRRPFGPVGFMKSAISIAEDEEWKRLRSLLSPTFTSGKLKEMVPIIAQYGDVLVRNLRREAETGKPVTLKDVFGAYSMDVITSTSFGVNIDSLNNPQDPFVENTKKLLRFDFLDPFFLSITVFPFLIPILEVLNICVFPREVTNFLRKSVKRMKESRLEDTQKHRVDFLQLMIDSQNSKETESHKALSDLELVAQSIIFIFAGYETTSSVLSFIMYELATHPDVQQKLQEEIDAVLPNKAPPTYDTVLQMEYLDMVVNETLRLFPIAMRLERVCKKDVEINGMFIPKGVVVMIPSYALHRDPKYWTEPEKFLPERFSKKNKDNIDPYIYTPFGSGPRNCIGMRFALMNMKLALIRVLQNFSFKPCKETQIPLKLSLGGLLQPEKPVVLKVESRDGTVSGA

The inhibition is the change of the read-out against control, counted positive when it falls. Low values mean a response near the control, high ones a response far below the control. The IC50 is the concentration that gives 50% inhibition. As a reminder, the Cmax is the peak of the concentration-time curve. Molecule `CC#C[C@]1(O)CC[C@H]2[C@@H]3CCC4=CC(=O)CC[C@]4(C)[C@H]3[C@@H](c3ccc(N(C)C)cc3)C[C@@]21C` gave an inhibition at 10 µM at CYP2C8 of 58%. Moreover, the IC50 against Cytochrome P450 3A4 is more than 10000 nM; on Glucocorticoid receptor it was 16 nM. Besides, the Vd in data set [1] worked out at 8.32 L/kg; in data set [3], 1.45 L/kg. In data set [2], this molecule showed a Cmax of 1260 ng/mL.
